Data on 16 compounds can be found in patent US10316020B2, “Indane derivatives and the use thereof as soluble guanylate cyclase activators” (NOVARTIS AG, priority 2015, dated 2019).

The target of this experiment is T1, soluble guanylate cyclase (GUCYA3/GUCYB3) overexpressed in CHO cells (Homo sapiens, UniProt Q02108+Q02153).
T1 construct: expressed in transfected cells
T1 sequence (Q02108 1-690 partner): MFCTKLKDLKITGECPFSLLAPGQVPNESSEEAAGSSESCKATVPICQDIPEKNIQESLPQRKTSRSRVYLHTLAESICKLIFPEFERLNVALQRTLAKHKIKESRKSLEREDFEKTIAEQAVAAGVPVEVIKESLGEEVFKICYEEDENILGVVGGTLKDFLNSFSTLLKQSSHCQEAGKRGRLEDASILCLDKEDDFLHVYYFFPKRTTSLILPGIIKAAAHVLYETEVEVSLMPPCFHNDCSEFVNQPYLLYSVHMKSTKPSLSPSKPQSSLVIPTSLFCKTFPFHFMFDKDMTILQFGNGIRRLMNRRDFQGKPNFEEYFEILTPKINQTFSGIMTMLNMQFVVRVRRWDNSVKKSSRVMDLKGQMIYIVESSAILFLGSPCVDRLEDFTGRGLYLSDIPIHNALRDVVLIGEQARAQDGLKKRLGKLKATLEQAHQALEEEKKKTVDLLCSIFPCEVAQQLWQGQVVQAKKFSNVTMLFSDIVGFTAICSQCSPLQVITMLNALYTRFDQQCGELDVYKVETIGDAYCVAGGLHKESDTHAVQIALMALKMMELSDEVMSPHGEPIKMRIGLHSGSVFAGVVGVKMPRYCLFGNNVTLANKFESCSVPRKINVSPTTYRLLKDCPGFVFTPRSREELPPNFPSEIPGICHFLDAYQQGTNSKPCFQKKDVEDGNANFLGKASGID
T1 sequence (Q02153 1-619): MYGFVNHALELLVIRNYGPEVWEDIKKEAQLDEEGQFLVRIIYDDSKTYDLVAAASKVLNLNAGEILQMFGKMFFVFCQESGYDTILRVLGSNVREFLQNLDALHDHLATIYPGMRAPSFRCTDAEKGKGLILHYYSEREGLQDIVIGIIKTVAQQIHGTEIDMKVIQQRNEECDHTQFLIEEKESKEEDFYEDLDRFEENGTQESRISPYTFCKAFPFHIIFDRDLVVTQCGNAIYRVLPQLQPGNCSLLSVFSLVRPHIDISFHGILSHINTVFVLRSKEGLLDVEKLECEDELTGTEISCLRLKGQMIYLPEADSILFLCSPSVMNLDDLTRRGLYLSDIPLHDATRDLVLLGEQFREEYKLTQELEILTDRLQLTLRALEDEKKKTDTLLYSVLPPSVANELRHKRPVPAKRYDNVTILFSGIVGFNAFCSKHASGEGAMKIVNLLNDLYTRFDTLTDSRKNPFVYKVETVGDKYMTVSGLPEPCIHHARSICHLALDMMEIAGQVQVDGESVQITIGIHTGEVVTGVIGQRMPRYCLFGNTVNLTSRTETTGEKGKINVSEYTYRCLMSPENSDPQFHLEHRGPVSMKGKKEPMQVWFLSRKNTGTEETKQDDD
Nature of the experiment: CHO cellular assay (cGMP production, HTRF). The settings on record: CHO GUCY clone 8E10; assay buffer with 1 mM IBMX, 20 uM ODQ; 1 h at room temperature; cGMP HTRF; quantification limit 0.0005 μM; read-out: Mean EC50. It is filed as cell-based. From the text:
Chinese hamster ovary (CHO) cells overexpressing soluble guanylate cyclase were generated to test the effect of sGC activators in a cellular context. Human cDNAs for GUCYA3 (RefSeq: NM_000856.3) and GUCYB3 (RefSeq: NM_000857.1) were amplified by PCR from a HUVEC (Human Umbilical Vein Endothelial Cells) cDNA library and cloned into mammalian expression vectors. CHO K1 cells (ATCC CCL-61) were transfected using Lipofectamine 2000 following manufacturer's instructions and stably expressing clones were identified by antibiotic selection. CHO GUCY clone 8E10 was used for subsequent experiments.
Cells were seeded at a density of 3000 cells/well in white 384-well proxyplates (Perkin Elmer) and incubated overnight, then the medium was removed and cells were washed with assay buffer (HBSS, 0.1% BSA, 1 mM IBMX, 20 uM ODQ). sGC activators were serially diluted in DMSO, then diluted in assay buffer prior to adding to cells (10 ul/well, final DMSO concentration 0.5%). Cells were incubated with compounds for 1 h at room temperature, then assayed for cGMP production using Cisbio cGMP HTRF kit (62GM2PEC) according to manufacturer's instructions.
The EC50s are calculated based on the amount of cGMP interpolated from the standard curve, using a 4-parameter sigmoidal dose-response.
Compounds of invention are active on sGC activation. Data in Table 1 collected using the assay of Biological Example 1.
For orientation: In TR-FRET formats the signal depends on donor and acceptor labels being close together.
In general, EC50 refers to the midpoint of the concentration-response curve. With `CCc1nc(NC2CCc3cccc(-c4cccc(-n5ncc(C(=O)O)c5OC)n4)c32)ccc1C1=CCN(C(=O)C2CC2)CC1` (single isomer, unassigned; (+)) [Example 16A, (+)-1-(6-(3-((1′-(Cyclopropanecarbonyl)-2-ethyl-1′,2′,3′,6′-tetrahydro-[3,4′-bipyridin]-6-yl)amino)-2,3-dihydro-1H-inden-4-yl)pyridin-2-yl)-5-methoxy-1H-pyrazole-4-carboxylic acid], the EC50 was under 0.5 nM.

`CCc1nc(NC2CCc3cccc(-c4cccc(-n5ncc(C(=O)O)c5NC)c4)c32)ccc1C1=CCN(C(=O)C2CC2)CC1` (single isomer, unassigned; (+)) [Example 22A, (+)-1-(3-(3-((1′-(Cyclopropanecarbonyl)-2-ethyl-1′,2′,3′,6′-tetrahydro-[3,4′-bipyridin]-6-yl)amino)-2,3-dihydro-1H-inden-4-yl)phenyl)-5-(methylamino)-1H-pyrazole-4-carboxylic acid]: the EC50 was under 0.5 nM.

As to `CCc1cc(NC2CCc3cccc(-c4cccc(-n5ncc(C(=O)O)c5OC)c4)c32)ccc1C1CCN(C(=O)[C@H](C)O)CC1` (single isomer, unassigned; (-)) [Example 4B], the EC50 amounted to 110 nM.

`CCc1cc(NC2CCc3cccc(-c4ccc(C)c(-n5ncc(C(=O)O)c5OC)c4)c32)ccc1C1CCN(C(=O)C2CC2)CC1` (single isomer, unassigned; (-)) [Example 7B, (−)-1-(5-(3-((4-(1-(Cyclopropanecarbonyl)piperidin-4-yl)-3-ethylphenyl)amino)-2,3-dihydro-1H-inden-4-yl)-2-methylphenyl)-5-methoxy-1H-pyrazole-4-carboxylic acid]: the EC50 turned out to be 2 nM.

On to `CCc1cc(NC2CCc3cccc(-c4ccc(OC)c(-n5ncc(C(=O)O)c5OC)c4)c32)ccc1C1CCN(C(=O)C2CC2)CC1` (single isomer, unassigned; (-)) [Example 8B, (−)-1-(5-(3-((4-(1-(Cyclopropanecarbonyl)piperidin-4-yl)-3-ethylphenyl)amino)-2,3-dihydro-1H-inden-4-yl)-2-methoxyphenyl)-5-methoxy-1H-pyrazole-4-carboxylic acid], for which the EC50 amounted to 86 nM.

As for `CCc1cc(NC2CCc3cccc(-c4cccc(-n5ncc(C(=O)O)c5N)c4)c32)ccc1C1CCN(C(=O)C2CC2)CC1` (single isomer, unassigned; (-)) [Example 9B, (−)-5-Amino-1-(3-(3-((4-(1-(cyclopropanecarbonyl)piperidin-4-yl)-3-ethylphenyl)amino)-2,3-dihydro-1H-inden-4-yl)phenyl)-1H-pyrazole-4-carboxylic acid], the EC50 came to 58 nM.

As to `CCc1nc(NC2CCc3cccc(-c4cccc(-n5ncc(C(=O)O)c5OC)c4)c32)ccc1C1=CCN(C(=O)C2CC2)CC1` (single isomer, unassigned; (-)) [Example 10B, (−)-1-(3-(3-((1′-(Cyclopropanecarbonyl)-2-ethyl-1′,2′,3′,6′-tetrahydro-[3,4′-bipyridin]-6-yl)amino)-2,3-dihydro-1H-inden-4-yl)phenyl)-5-methoxy-1H-pyrazole-4-carboxylic acid], the EC50 stood at 149 nM.

For the compound `CCc1nc(NC2CCc3cccc(-c4cccc(-n5ncc(C(=O)O)c5OC)n4)c32)ccc1C1=CCN(C(=O)C2CC2)CC1` (single isomer, unassigned; (-)) [Example 16B, (−)-1-(6-(3-((1′-(Cyclopropanecarbonyl)-2-ethyl-1′,2′,3′,6′-tetrahydro-[3,4′-bipyridin]-6-yl)amino)-2,3-dihydro-1H-inden-4-yl)pyridin-2-yl)-5-methoxy-1H-pyrazole-4-carboxylic acid], the EC50 was determined as 279 nM.

On to `CCc1cc(NC2CCc3cccc(-c4cccc(-n5ncc(C(=O)O)c5N)n4)c32)ccc1C1CCN(C(=O)C2CC2)CC1` (single isomer, unassigned; (-)) [Example 18B, (−)-5-Amino-1-(6-(3-((4-(1-(cyclopropanecarbonyl)piperidin-4-yl)-3-ethylphenyl)amino)-2,3-dihydro-1H-inden-4-yl)pyridin-2-yl)-1H-pyrazole-4-carboxylic acid], for which the EC50 is 31 nM.

In the case of `CCc1nc(NC2CCc3cccc(-c4cccc(-n5ncc(C(=O)O)c5NC)c4)c32)ccc1C1=CCN(C(=O)C2CC2)CC1` (single isomer, unassigned; (-)) [Example 22B, (−)-1-(3-(3-((1′-(Cyclopropanecarbonyl)-2-ethyl-1′,2′,3′,6′-tetrahydro-[3,4′-bipyridin]-6-yl)amino)-2,3-dihydro-1H-inden-4-yl)phenyl)-5-(methylamino)-1H-pyrazole-4-carboxylic acid], the EC50 came out at 40.4 nM.

Take `CCc1cc(NC2CCc3cccc(-c4cccc(-n5ncc(C(=O)O)c5NC)c4)c32)ccc1C1CCN(C(=O)C2CC2)CC1` (single isomer, unassigned; enantiomer-1) [Example 12A, (enantiomer-1)-1-(3-(3-((4-(1-(Cyclopropanecarbonyl)piperidin-4-yl)-3-ethylphenyl)amino)-2,3-dihydro-1H-inden-4-yl)phenyl)-5-(methylamino)-1H-pyrazole-4-carboxylic acid]: the EC50 is 53 nM.

Turning to `CCc1cc(NC2CCc3cccc(-c4cccc(-n5ncc(C(=O)O)c5NC)c4)c32)ccc1C1CCN(C(=O)C2CC2)CC1` (single isomer, unassigned; enantiomer-2) [Example 12B, (enantiomer-2)-1-(3-(3-((4-(1-(Cyclopropanecarbonyl)piperidin-4-yl)-3-ethylphenyl)amino)-2,3-dihydro-1H-inden-4-yl)phenyl)-5-(methylamino)-1H-pyrazole-4-carboxylic acid], the EC50 was under 0.5 nM.

Regarding `CCc1cc(C[C@@H]2CCc3cccc(-c4cccc(-n5ncc(C(=O)O)c5OC)c4)c32)ccc1C1CCN(C(=O)C2CC2)CC1` [Example 1B, (−)-(S)-1-(3-(3-(4-(1-(Cyclopropanecarbonyl)piperidin-4-yl)-3-ethylbenzyl)-2,3-dihydro-1H-inden-4-yl)phenyl)-5-methoxy-1H-pyrazole-4-carboxylic acid], the EC50 is 16 nM.

With `CCc1cc(C[C@H]2CCc3cccc(-c4cccc(-n5ncc(C(=O)O)c5OC)c4)c32)ccc1C1CCN(C(=O)[C@H](C)O)CC1` [Example 2A, (+)-1-(3-((R)-3-(3-Ethyl-4-(1-((S)-2-hydroxypropanoyl)piperidin-4-yl)benzyl)-2,3-dihydro-1H-inden-4-yl)phenyl)-5-methoxy-1H-pyrazole-4-carboxylic acid], the EC50 is under 0.5 nM.

Take `CCc1cc(C[C@@H]2CCc3cccc(-c4cccc(-n5ncc(C(=O)O)c5OC)c4)c32)ccc1C1CCN(C(=O)[C@H](C)O)CC1` [Example 2B, (−)-1-(3-((S)-3-(3-Ethyl-4-(1-((S)-2-hydroxypropanoyl)piperidin-4-yl)benzyl)-2,3-dihydro-1H-inden-4-yl)phenyl)-5-methoxy-1H-pyrazole-4-carboxylic acid]: the EC50 is 34 nM.

Regarding `CCc1cc(N[C@@H]2CCc3cccc(-c4cccc(-n5ncc(C(=O)O)c5OC)c4)c32)ccc1C1CCN(C(=O)C2CC2)CC1` [Example 3B, (−)-(R)-1-(3-(3-((4-(1-(Cyclopropanecarbonyl)piperidin-4-yl)-3-ethylphenyl)amino)-2,3-dihydro-1H-inden-4-yl)phenyl)-5-methoxy-1H-pyrazole-4-carboxylic acid], the EC50 was determined as 29 nM.
